Read-outs that look alike come from different tables or passages of the source.

In series [1] the test system is human whole blood. The experiment in a line: Confirmation of presence and absence of hemolysis in whole blood with surfactant (Example 2). The protocol:
A surfactant was added to human whole blood for confirmation of presence and absence of hemolysis. […] Octyltrimethylammonium bromide (C8TAB) and hexadecyltrimethylammonium chloride (C16TAC) were used as cationic surfactants. N-decanoyl sarcosine sodium (N-DSS (NDS)) and N-lauroyl sarcosine sodium hydrate (NLS) were used as anionic surfactants. As amphoteric surfactants, CHAPS and N-dodecyl-N,N-dimethyl-3-ammonio-l-propanesulfonate (C12APS) were used.
More specifically, 900 μL of whole blood obtained after blood collection was added to the 5 mL polypropylene test tube (manufactured by nunc) containing 100 μL of D-PBS (-) supplemented with the surfactant. The surfactant was added to achieve a final concentration of 0.5 W/V % after mixed with whole blood. After the addition of whole blood, the test tubes were inverted for mixing, and allowed to stand at room temperature for 30 minutes. After centrifugation (3000 rpm, 5 minutes), the supernatant was collected for visual check of the presence and absence of hemolysis.

The test system of series [2] is CD9, the surface marker protein of the extracellular vesicle (EV). Kind of series: Recovery of EV from whole blood with chelating agent (CD9 measured in supernatant, Example 1). On the set-up: species or system human. The following applies: chelating agent final concentration 15 mM in whole blood.
Method: The chelating agent was added to human whole blood. After centrifugation, CD9 in the supernatant was measured. […]
In series [3] the test system is CD9, the surface marker protein of extracellular vesicle (EV). The experiment in a line: Recovery of EV from whole blood supplemented with chelating agent and surfactant (CD9 in supernatant, Example 3). Also noted: species or system human. The following applies: chelating agent 60 mM.
Method: To 0.01 g/mL of magnetic particles in 10 mM MES buffer (pH 5.0), 0.2 mg/mL of a mouse anti-CD9 monoclonal antibody (Fujirebio Inc.) that recognizes an extracellular vesicle (EV) surface marker CD9, was added. Then, the resulting solution was gently stirred at 25° C. for one hour for incubation. After the reaction, the magnetic particles were magnetically collected and washed with a washing solution (50 mM Tris buffer, 150 mM NaCl2, 2.0% BSA, pH 7.2) in order to obtain anti-CD9 antibody solid-phased particles. Each antibody solid-phased particle was suspended in a particle diluent (50 mM Tris buffer, 1 mM EDTA-2Na, 0.1% NaN3, 2.0% BSA, pH 7.2) in order to obtain each antibody solid-phased particle solution. […]
The chelating agent and the surfactant were added to human whole blood. CD9 was measured in the supernatant after centrifugation. […]
Series [4] shares this test system. The experiment in a line: Study of action of chelating agent and surfactant on whole blood or on immune reaction (CD9, Example 5). On the set-up: species or system human. The following applies: for vs. no EGTA (%): 100 mM EGTA in particle solution vs none. The protocol: (§1) To 0.01 g/mL of magnetic particles in 10 mM MES buffer (pH 5.0), 0.2 mg/mL of a mouse anti-CD9 monoclonal antibody (Fujirebio Inc.) that recognizes an extracellular vesicle (EV) surface marker CD9, was added. Then, the resulting solution was gently stirred at 25° C. for one hour for incubation. After the reaction, the magnetic particles were magnetically collected and washed with a washing solution (50 mM Tris buffer, 150 mM NaCl2, 2.0% BSA, pH 7.2) in order to obtain anti-CD9 antibody solid-phased particles. Each antibody solid-phased particle was suspended in a particle diluent (50 mM Tris buffer, 1 mM EDTA-2Na, 0.1% NaN3, 2.0% BSA, pH 7.2) in order to obtain each antibody solid-phased particle solution.
(§2) Desalted alkaline phosphatase (ALP) was mixed with N-(4-maleimidobutyryloxy)-succinimide (GMBS) (final concentration 0.3 mg/mL) and the resulting solution was allowed to stand at 30° C. for one hour for maleimidation of ALP. Next, in a coupling reactant solution (100 mM phosphate buffer, 1 mM EDTA-2Na, pH 6.3), Fab's of mouse anti-CD9 monoclonal antibody was mixed with maleimidized ALP at a molar ratio of 1: 1, and reacted at 25° C. for one hour. The reactant solution was subjected to purification using Superdex 200 column chromatography (General Electric Company) to obtain ALP-labeled anti-CD9 antibody. Each ALP-labeled antibody was suspended in a labeled antibody diluent (50 mM MES buffer, 150 mM NaCl2, 0.3 mM ZnCl2, 1 mM MgCl2, 0.1% NaN3, 2.0% BSA, pH 6.8) to obtain each labeled antibody solution.
20 μL of the sample for measurement and 50 μL of the anti-CD9 antibody solid-phased particle solution were dispensed into the reaction vessel and stirred. Then, the resulting solution was incubated at 37° C. for 8 minutes (primary reaction), and B/F separation and washing were carried out. 50 μL of the ALP-labeled antibody was dispensed into the reaction vessel, the resulting solution was stirred and then incubated at 37° C. for 8 minutes, and B/F separation and washing were carried out. Then, 200 μL of Lumipulse (registered trademark) substrate solution (Fujirebio Inc.) containing 3-(2′-spiroadamantane)-4-methoxy-4-(3″-phosphoryloxy)phenyl-1,2-dioxetane disodium salt (AMPPD) serving as a chemiluminescent substance was dispensed into the reaction chamber. The resulting solution was stirred and then incubated at 37° C. for 4 minutes for the measurement of luminescence intensity using luminometer. A count value was obtained as the measured value. The luminescence intensity was measured using a fully automated chemiluminescent enzyme immunoassay system (Lumipulse L2400 (Fujirebio Inc.)). […]
In addition, CD9 was measured also for a solution obtained by adding 100 mM EGTA to the CD9 antibody solid-phased particle solution. […]

Series [5] shares this test system. The experiment in a line: Study of concentrations of chelating agent and surfactant (CD9 in supernatant, Example 4). Also noted: species or system human. The conditions noted are these: Tergitol 15-S-40 0%. The protocol:
as §1, §2
20 μL of the sample for measurement and 50 μL of the anti-CD9 antibody solid-phased particle solution were dispensed into the reaction vessel and stirred. Then, the resulting solution was incubated at 37° C. for 8 minutes (primary reaction), and B/F separation and washing were carried out. 50 μL of the ALP-labeled antibody was dispensed into the reaction vessel, the resulting solution was stirred and then incubated at 37° C. for 8 minutes, and B/F separation and washing were carried out. Then, 200 μL of Lumipulse (registered trademark) substrate solution (Fujirebio Inc.) containing 3-(2′-spiroadamantane)-4-methoxy-4-(3″-phosphoryloxy)phenyl-1,2-dioxetane disodium salt (AMPPD) serving as a chemiluminescent substance was dispensed into the reaction chamber. The resulting solution was stirred and then incubated at 37° C. for 4 minutes for the measurement of luminescence intensity using luminometer. A count value was obtained as the measured value. The luminescence intensity was measured using a fully automated chemiluminescent enzyme immunoassay system (Lumipulse L2400 (Fujirebio Inc.)).
Antibodies recognizing the same epitope in CD9 were used as the antibody solid-phased on the magnetic particle and the ALP-labeled antibody. Due to the presence of a plurality of CD9 on a single extracellular vesicle, it is possible to measure for the extracellular vesicle presenting a plurality of CD9 to be indicated as the surface marker rather than free CD9 by means of the sandwich immunoassay in which the antibodies recognizing the same epitope as the solid-phased antibodies were used as the ALP-labeled antibodies.
Various concentrations of the chelating agent and the surfactant were added to human whole blood, for the measurement of CD9 in the supernatant obtained after centrifugation. […]

Series [6] shares this test system. Kind of series: Study of surfactant type in combination with EGTA (CD9 in supernatant, Example 6). The following applies: EGTA 200 mM, no surfactant (D-PBS(-)). On the set-up: species or system human. The protocol: as §1, with “solution. […]” for “solution.”
20 μL of the sample for measurement and 50 μL of the anti-CD9 antibody solid-phased particle solution were dispensed into the reaction vessel and stirred. […] The resulting solution was stirred and then incubated at 37° C. for 4 minutes for the measurement of luminescence intensity using luminometer. A count value was obtained as the measured value. The luminescence intensity was measured using a fully automated chemiluminescent enzyme immunoassay system (Lumipulse L2400 (Fujirebio Inc.)). […]

The mark [7] stands for this setting: surfactant final 0.5 W/V % in whole blood, visual check of supernatant.

With `CCCCCCCCCCCC[N+](C)(C)CCCS(=O)(=O)[O-]` [C12APS, N-dodecyl-N,N-dimethyl-3-ammonio-l-propanesulfonate], in series [1] (setting [7]), the “Hemolysis, Specimen 1” value is recorded as “Hemolysis” and the “Hemolysis, Specimen 2” value is listed as “Hemolysis”.
As to `CCCCCCCCCCCCCCCC[N+](C)(C)C.[Cl-]` [C16TAC, hexadecyltrimethylammonium chloride], in series [1] (setting [7]), the “Hemolysis, Specimen 1” value is recorded as “Hemolysis” and the “Hemolysis, Specimen 2” value was “Hemolysis”.
Regarding `C[C@H](CCC(=O)NCCC[N+](C)(C)CCCS(=O)(=O)[O-])[C@H]1CC[C@H]2[C@@H]3[C@H](O)C[C@@H]4C[C@H](O)CC[C@]4(C)[C@H]3C[C@H](O)[C@]12C` [CHAPS], in series [1] (setting [7]), the “Hemolysis, Specimen 1” value is on record as “Hemolysis” and the “Hemolysis, Specimen 2” value is “Hemolysis”.
Regarding `O=C(O)CN(CCN(CC(=O)O)CC(=O)O)CC(=O)O.[Na].[Na]` [EDTA2Na, disodium ethylenediaminetetraacetic acid], the “vs. non-addition (%)” value in series [2] amounted to 376.6%. Further, the “vs. No chelating agent and surfactant added (%)” value in series [3] was determined as 196.6%.
With `O=C(O)CN(CCOCCOCCN(CC(=O)O)CC(=O)O)CC(=O)O` [EGTA, glycol ether diamine tetraacetic acid], the “vs. no EGTA (%)” value in series [4] (blood collection vessel: 200 mM EGTA, 0% Tergitol) is listed as 112.9%; in series [4] (blood collection vessel: nothing added), 71%. The “vs. non-addition (%)” value is reported as 843.5% in series [4] (blood collection vessel: 200 mM EGTA, 0% Tergitol, particle solution: 100 mM EGTA + 0.5% Tergitol); 530.5% in series [4] (blood collection vessel: 200 mM EGTA, 0% Tergitol, particle solution: 0.5% Tergitol); 215% in series [2]. Further, the “CD9 vs. 0 mM EGTA (%)” value in series [5] (EGTA 10 mM) was determined as 154%; in series [5] (EGTA 50 mM), 294%; in series [5] (EGTA 100 mM) it was 532%; in series [5] (EGTA 200 mM), 721%. The “CD9 vs. 0% Tergitol (%)” value in series [5] (EGTA 50 mM) is 294%. Besides, the “vs. No chelating agent and surfactant added (%)” value in series [3] stood at 332.6%. For the same compound, the vs. non-addition in series [6] was found to be 366.4.
Take `O=C(O)CN(CCO)CCN(CC(=O)O)CC(=O)O` [HEDTA, hydroxyethyl ethylenediaminetriacetic acid]: the “vs. non-addition (%)” value in series [2] is given as 963.9%.
As to `CCCCCCCCCC(=O)N(C)CC(=O)O.[Na]` [N-DSS (NDS), N-decanoyl sarcosine sodium], in series [1], the “Hemolysis, Specimen 1” value is “Hemolysis” and the “Hemolysis, Specimen 2” value is on record as “Hemolysis”.
For `CCCCCCCCCCCC(=O)N(C)CC(=O)O.O.[Na]` [NLS, N-lauroyl sarcosine sodium hydrate], in series [1], the “Hemolysis, Specimen 1” value was “Hemolysis” and the “Hemolysis, Specimen 2” value is reported as “Hemolysis”.
In the case of `O=C(O)CN(CC(=O)O)CC(=O)O` [NTA, nitrilotriacetic acid], the “vs. non-addition (%)” value in series [2] was determined as 427.7%.

The values are drawn from patent US20230051797A1, “METHOD FOR RECOVERING EXTRACELLULAR VESICLE AND BLOOD COLLECTION VESSEL” (FUJIREBIO INC., priority 2019, published 2023).
